Biological target: T1, Serine/threonine-protein kinase 4 (Human, UniProt Q13043)
T1 sequence (Q13043 whole entry): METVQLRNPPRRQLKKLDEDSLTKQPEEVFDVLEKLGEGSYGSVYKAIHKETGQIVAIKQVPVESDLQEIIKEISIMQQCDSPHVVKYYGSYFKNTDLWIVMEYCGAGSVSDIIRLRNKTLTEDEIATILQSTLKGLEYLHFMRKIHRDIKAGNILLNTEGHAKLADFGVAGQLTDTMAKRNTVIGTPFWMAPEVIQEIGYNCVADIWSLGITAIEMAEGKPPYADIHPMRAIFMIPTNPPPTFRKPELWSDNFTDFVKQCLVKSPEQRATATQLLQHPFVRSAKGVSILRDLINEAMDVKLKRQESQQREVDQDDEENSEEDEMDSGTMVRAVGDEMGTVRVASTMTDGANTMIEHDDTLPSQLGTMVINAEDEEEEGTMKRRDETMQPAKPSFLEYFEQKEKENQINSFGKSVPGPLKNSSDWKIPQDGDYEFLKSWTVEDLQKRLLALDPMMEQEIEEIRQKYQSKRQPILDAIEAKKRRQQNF
Assay: Biochemical Assay
Experimental: Biochemical IC50s were measured at Invitrogen using Z-lyte technology. Briefly, for STK4, the 2×STK4 (MST1)/Ser/Thr 07 mixture was prepared in 50 mM HEPES pH 7.5, 0.01% BRIJ35, 10 mM MgCl2, 1 mM EGTA. The final 10 μL Kinase Reaction consisted of 6.25-160 ng STK4 (MST1) and 2 μM Ser/Thr 07 in 50 mM HEPES pH 7.5, 0.01% BRIJ-35, 10 mM MgCl2, 1 mM EGTA. After the 1 hour Kinase Reaction incubation, 5 μL of a 1:100000 dilution of Development Reagent A was added. Compounds were screened in a 10 point titration with 3-fold serial dilutions starting at a concentration of 10 μM. The biochemical IC50s against other STK family members were measured similarly. The ATP concentration used matched the Km for each kinase.

Structure (SMILES)	IC50
Nc1ncc(-c2cccc3sccc23)cc1-c1ccc2c(c1)CCNC2=O [US10710978, Compound I-15]	< 40 nM
Cc1cc(S(=O)(=O)N(C)C2CC2)ccc1-c1cnc(N)c(-c2ccc3c(c2)CCNC3=O)c1 [US10710978, Compound I-46]	< 40 nM

Reference: BindingDB's records for patent US10710978 (DANA-FARBER CANCER INSTITUTE, INC.; FONDAZIONE CENTRO SAN …, 2020)
